These results are taken from ChEMBL document CHEMBL1130737, “Inhibitors of acyl-CoA:cholesterol O-acyltransferase (ACAT) as hypocholesterolemic agents: synthesis and structure-activity relationships of novel series of sulfonamides, acylphosphonamides and acylphosphoramidates” (Bioorg Med Chem Lett, 1998).

Experiment [1] has as its system Rattus norvegicus. Briefly: In vivo percent change in plasma cholesterol level was measured at a dose of 30 mg/Kg in rat and expressed as deltaTC; p < 0.01. In kind it is functional.
Experiment [2] addresses T1, Acyl-CoA:cholesterol acyltransferase (Oryctolagus cuniculus, UniProt Q95214).
T1 sequence (Q95214 whole entry): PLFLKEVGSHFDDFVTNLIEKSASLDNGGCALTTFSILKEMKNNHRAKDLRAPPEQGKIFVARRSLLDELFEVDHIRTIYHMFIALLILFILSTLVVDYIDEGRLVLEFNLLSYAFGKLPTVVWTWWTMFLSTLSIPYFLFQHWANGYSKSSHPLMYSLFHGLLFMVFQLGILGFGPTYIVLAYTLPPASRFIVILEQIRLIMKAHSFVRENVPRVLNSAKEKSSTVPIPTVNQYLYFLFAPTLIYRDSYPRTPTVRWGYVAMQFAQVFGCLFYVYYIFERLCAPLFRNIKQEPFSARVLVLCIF
Kind of experiment: In vitro inhibition of ACAT by incubation with [1-14C]oleolyl-CoA and intestinal microsomes isolated from cholesterol-fed rabbits. More on the design: species or system Intestine.

The test system of experiment [3] is Rattus norvegicus. Kind of experiment: In vivo percent change in plasma cholesterol level was measured at a dose of 30 mg/Kg in rat and expressed as deltaTC; p < 0.05. In kind it is functional.
The subject of experiment [4] is Rattus norvegicus. Kind of experiment: In vivo percent change in plasma cholesterol level was measured at a dose of 10 mg/Kg in rat and expressed as deltaTC; not significant. It is filed as functional.
Experiment [5] has as its system Rattus norvegicus. Briefly: In vivo percent change in plasma cholesterol level was measured at a dose of 1 mg/Kg in rat and expressed as deltaTC; not significant. It is filed as functional.
The test system of experiment [6] is Rattus norvegicus. Kind of experiment: In vivo percent change in plasma cholesterol level was measured at a dose of 30 mg/Kg in rat and expressed as deltaTC; not significant. In kind it is functional.
Experiment [7] relates to Rattus norvegicus. Briefly: In vivo percent change in plasma cholesterol level was measured at a dose of 30 mg/Kg in rat and expressed as deltaTC; p < 0.001. In kind it is functional.
Experiment [8] has as its system Rattus norvegicus. Briefly: In vivo percent change in plasma cholesterol level was measured at a dose of 1 mg/Kg in rat and expressed as deltaTC; p < 0.05. It is filed as functional.

For `CCCCCCCCCCCCCCOC(=O)CS(=O)(=O)Nc1c(C(C)C)cccc1C(C)C`, the DeltaTC in the experiment with Rattus norvegicus [1] is reported as -45%.

As to `CCCCCCCCCCOC(=O)CS(=O)(=O)Nc1c(C(C)C)cccc1C(C)C`, the IC50 (as a rule, the concentration needed to halve the response being measured) in experiment [2] is > 1000 nM. In addition, in the experiment with Rattus norvegicus [3], the DeltaTC is -16%.

In turn, `CC(C)c1cccc(C(C)C)c1NS(=O)(=O)CC(=O)N(Cc1ccccc1)C(C)C` yielded an IC50 in experiment [2] of 150 nM. In the experiment with Rattus norvegicus [1], the DeltaTC is -31%.

As for `COP(=O)(Cc1c(C(C)C)cccc1C(C)C)NC(=O)Cc1c(C(C)C)cc(C(C)C)cc1C(C)C` (stereo not drawn), the IC50 in experiment [2] was found to be 1200 nM. Also, the DeltaTC in the experiment with Rattus norvegicus [4] is listed as -2%.

With `COP(=O)(NC(=O)Cc1c(C(C)C)cc(C(C)C)cc1C(C)C)Oc1c(C(C)C)cc(Cl)cc1C(C)C` (stereo not drawn), the half-maximal inhibitory concentration (IC50) in experiment [2] was > 5000 nM. Besides, the DeltaTC in the experiment on Rattus norvegicus [5] is listed as -12%.

Regarding `CC(C)c1cccc(C(C)C)c1NC(=O)CS(=O)(=O)Oc1c(C(C)C)cccc1C(C)C`, in experiment [2], the IC50 was found to be 7 nM. The DeltaTC in the experiment on Rattus norvegicus [1] was -42%.

For the compound `CC(C)c1cccc(C(C)C)c1NS(=O)(=O)CC(=O)Oc1c(C(C)C)cccc1C(C)C`, the 50% inhibitory concentration (IC50) in experiment [2] is > 1000 nM.

In experiment [2], `CC(C)c1cccc(C(C)C)c1OS(=O)(=O)CC(=O)NC(c1ccccc1)c1ccccc1` yielded a half-maximal inhibitory concentration (IC50) of 1800 nM. Further, the DeltaTC in the experiment on Rattus norvegicus [1] is given as -43%.

Take `CCCCCCSC(=O)CS(=O)(=O)Nc1c(C(C)C)cccc1C(C)C`: the IC50 in experiment [2] came out at 1000 nM.

`CCCCCCCCCCCCNC(=O)CS(=O)(=O)Oc1c(C(C)C)cccc1C(C)C`: the IC50 in experiment [2] is 3000 nM. In addition, the DeltaTC in the experiment on Rattus norvegicus [6] is reported as -3%.

In experiment [2], `CC(C)c1cccc(C(C)C)c1OC(=O)[N-]S(=O)(=O)Oc1c(C(C)C)cccc1C(C)C.[Na+]` displayed an IC50 of 5200 nM. Further, the DeltaTC with Rattus norvegicus [1] was -74%.

Consider `CCCCCCCCOC(=O)CS(=O)(=O)Nc1c(C(C)C)cccc1C(C)C`, for which the 50% inhibitory concentration (IC50) in experiment [2] was > 1000 nM. In addition, in the experiment on Rattus norvegicus [6], the DeltaTC is on record as -4%.

For `COP(=O)(Cc1c(C(C)C)cc(C(C)C)cc1C(C)C)NC(=O)Cc1c(C(C)C)cccc1C(C)C` (stereo not drawn), in experiment [2], the midpoint of inhibition, the IC50, lay at 290 nM.

For `COP(=O)(NC(=O)Cc1c(C(C)C)cc(C(C)C)cc1C(C)C)Oc1c(C(C)C)cccc1C(C)C` (stereo not drawn), it took 4800 nM to reach half-maximal inhibition in experiment [2] (IC50).

With `CC(C)c1cccc(C(C)C)c1NS(=O)(=O)CC(=O)NCC1(c2ccccc2)CCCC1`, the IC50 in experiment [2] is > 1000 nM.

With `CC(C)c1cccc(C(C)C)c1NC(=O)CS(=O)(=O)Nc1c(C(C)C)cccc1C(C)C`, 350 nM corresponded to half-maximal inhibition in experiment [2] (IC50). The DeltaTC with Rattus norvegicus [7] is recorded as -51%.

For the compound `COP(=O)(Cc1c(C(C)C)cc(C(C)C)cc1C(C)C)NC(=O)Cc1c(C(C)C)cc(C(C)C)cc1C(C)C` (stereo not drawn), in experiment [2], the IC50 worked out at 740 nM. Further, the DeltaTC with Rattus norvegicus [4] is on record as -17%.

Take `CC(C)c1cc(C(C)C)c(OC(=O)CS(=O)(=O)Nc2c(C(C)C)cccc2C(C)C)c(C(C)C)c1`: the IC50 in experiment [2] is 2800 nM. Further, the DeltaTC in the experiment on Rattus norvegicus [6] is given as -19%.

Consider `CCCCCCCCCCCCSC(=O)CS(=O)(=O)Nc1c(C(C)C)cccc1C(C)C`, for which the midpoint of inhibition in experiment [2], the IC50, lay at 73 nM. In the experiment on Rattus norvegicus [1], the DeltaTC was -71%.

In experiment [2], `CC(C)c1cc(C(C)C)c(OS(=O)(=O)CC(=O)Nc2c(C(C)C)cccc2C(C)C)c(C(C)C)c1` gave an IC50 of 7 nM. Moreover, in the experiment with Rattus norvegicus [1], the DeltaTC was -60%.

For `CCCCCCOC(=O)CS(=O)(=O)Nc1c(C(C)C)cccc1C(C)C`, in experiment [2], the IC50 is > 1000 nM. In addition, the DeltaTC with Rattus norvegicus [6] was -5%.

As for `COc1cc(OC)c(OC(=O)CS(=O)(=O)Nc2c(C(C)C)cccc2C(C)C)c(OC)c1`, the IC50 in experiment [2] is > 1000 nM. For the same compound, the DeltaTC in the experiment with Rattus norvegicus [6] is on record as -6%.

As for `CC(C)c1cc(C(C)C)c(CC(=O)NP(=O)(Oc2c(C(C)C)cccc2C(C)C)c2ccccc2)c(C(C)C)c1` (stereo not drawn), the midpoint of inhibition in experiment [2], the IC50, lay at 2500 nM. Moreover, the DeltaTC with Rattus norvegicus [8] is listed as -25%.

In turn, `CCCCCCCCCCCCNC(=O)CS(=O)(=O)Nc1c(C(C)C)cccc1C(C)C` gave an IC50 in experiment [2] of 320 nM. Moreover, the DeltaTC in the experiment on Rattus norvegicus [1] is listed as -29%.

Regarding `CC(C)c1cc(C(C)C)c(NS(=O)(=O)CC(=O)Oc2c(C(C)C)cccc2C(C)C)c(C(C)C)c1`, the IC50 in experiment [2] is > 1000 nM. Moreover, the DeltaTC with Rattus norvegicus [1] is reported as -29%.

As to `CCOC(=O)CS(=O)(=O)Nc1c(C(C)C)cccc1C(C)C`, the IC50 in experiment [2] is > 1000 nM. In addition, the DeltaTC in the experiment with Rattus norvegicus [6] is recorded as 2%.

For `CCCCCCCCCCSC(=O)CS(=O)(=O)Nc1c(C(C)C)cccc1C(C)C`, the IC50 in experiment [2] turned out to be 130 nM.

As to `CCCCCCCCSC(=O)CS(=O)(=O)Nc1c(C(C)C)cccc1C(C)C`, the half-inhibitory concentration (IC50) in experiment [2] was found to be 150 nM. The DeltaTC in the experiment with Rattus norvegicus [3] was -32%.

Turning to `CCCCCCNC(=O)CS(=O)(=O)Nc1c(C(C)C)cccc1C(C)C`, the IC50 in experiment [2] was > 5000 nM. For the same compound, the DeltaTC with Rattus norvegicus [3] was -16%.

Regarding `CCCCCCCCCCCCOC(=O)CS(=O)(=O)Nc1c(C(C)C)cccc1C(C)C`, the DeltaTC in the experiment with Rattus norvegicus [1] was -34%.

Take `CC(C)c1cccc(C(C)C)c1NS(=O)(=O)CC(=O)Sc1c(C(C)C)cccc1C(C)C`: in experiment [2], the IC50 is > 50000 nM. Moreover, in the experiment with Rattus norvegicus [6], the DeltaTC is -16%.

As for `CCCCCCCCCCCCCCSC(=O)CS(=O)(=O)Nc1c(C(C)C)cccc1C(C)C`, in experiment [2], the half-inhibitory concentration (IC50) was 36 nM. For the same compound, in the experiment on Rattus norvegicus [1], the DeltaTC is reported as -23%.

On to `CCCCCCCCCCCCCCCCCCSC(=O)CS(=O)(=O)Nc1c(C(C)C)cccc1C(C)C`, for which the IC50 in experiment [2] is > 5000 nM. Besides, the DeltaTC with Rattus norvegicus [6] is given as -35%.

`CCCCCCCCCCCCC(C)OC(=O)CS(=O)(=O)Nc1c(C(C)C)cccc1C(C)C` (stereo not drawn) had a 50% inhibitory concentration (IC50) in experiment [2] of 21 nM. Also, in the experiment with Rattus norvegicus [7], the DeltaTC is given as -39%.

Turning to `CCCCCCCCN(CCCCCCCC)C(=O)CS(=O)(=O)Nc1c(C(C)C)cccc1C(C)C`, the DeltaTC with Rattus norvegicus [6] is -19%.

The compound `CC(C)c1cc(C(C)C)c(CC(=O)NS(=O)(=O)Oc2c(C(C)C)cccc2C(C)C)c(C(C)C)c1` [AVASIMIBE] displayed an IC50 in experiment [2] of 12000 nM. Moreover, the DeltaTC in the experiment on Rattus norvegicus [1] is reported as -73%.
